Source: patent US7208153B2, “Method for the improvement of neuronal regeneration” (Neuraxo Biopharmaceuticals GmbH, priority 1997, dated 2007)
Entries after “also recorded” stand apart in the source; their conditions may differ.

Assays:
[1] = system: Na+-dependent action potentials of fornix fibers; set-up: species or system rats
[2] = system: basal membrane formation (collagen IV) in the lesion site; assay: Lesion-induced basal membrane (collagen IV) deposition after postcommissural fornix transection, immunohistochemistry; assay type: in vivo, Wistar rats
Procedure: In an effort to modulate postlesion BM deposition, either polyclonal antibodies against collagen IV (anti-Coll IV; n=14) or the iron chelator a, a′-dipyridyl (DPY; n=9) were injected locally into the lesion center immediately after transection. […] (13) and enhanced procollagen degradation (14). Control animals received a PBS injection (n=9) or were sham operated (n=3). Basal membrane formation was studied in response to antibody and drug treatment using immunohistochemical methods. […] At 2 weeks after lesion+injection only a very small number of Coll-immunreactive structures perpendicular to the tract course had developed (FIG. 1e, f).
Surgery. The left postcommissural fornix of 42 Wistar rats (180–210 g) was transected stereotactically at a distance of about 1 mm proximal to the target, the mammillary body, using a Scouten wire knife as described previously (9). The completeness of transection was confirmed by serial reconstruction of the lesion site for each of the animals. Immediately after transection animals received a topical application (1.6 μl) of either polyclonal antibodies against collagen, IV (anti-Coll IV, Biogenex, 50–100 μg/ml, n=14) or the iron chelator a, a′-dipyridyl (DPY, 1–10 mM, n=9). Substances were pressure injected (injection time 10 min) directly into the lesion site via a micropipette coupled to a microsyringe. Controls received equal amounts of phosphate-buffered saline (n=9) or sham operation (n=3).
Immunohistochemical staining. After a survival time of 4 days (d), 6 d, 2 weeks (w), 4 w and 6 w after surgery brains were removed, frozen in isopentan (−50/−60° C.) and cut into serial sagittal 10 μm thick sections. […]

[3] = system: transected postcommissural fornix axons; assay: Regeneration of transected postcommissural fornix axons across the lesion site (NF immunohistochemistry, anterograde tracing, electron microscopy); assay type: in vivo, Wistar rats

Structure (SMILES) | stimulus-evoked extracellular response [1] | lesion-induced BM deposition ([2]; local injection) | Coll-immunopositive laminae and blood vessels in the lesion center and the fornix stumps ([2]; single local injection immediately after transection, anti-Coll IV 80–160 ng or DPY 1.6–16 μmol, all examined survival time points) | Collagen IV deposition in the lesion site ([2]; two weeks postsurgery, FIG. 1e, f) | regeneration of transected fornix fibers across the lesion site (NF-immunohistochemistry) ([3]; 6 weeks postsurgery, FIG. 2) | elongation of fornix axons into and across the lesion center ([3]; between 2 and 4 weeks after lesion+injection, immunocytochemical staining)
NC1=N[C@H](O)[C@H]2[C@H]3O[C@]4(O)O[C@@H]([C@@H](O)[C@@]2(N1)[C@@H]4O)[C@]3(O)CO [Tetrodotoxin] | blocks the stimulus-evoked response; also recorded: blocked |  |  |  |  | 
c1ccc(-c2ccccn2)nc1 [DPY, a, a′-dipyridyl] |  | significantly reduced | massive and specific reduction | markedly reduced | fibers traverse the former lesion site | large numbers of axons entered and traversed the lesion center
